# Results taken from paper PMC8350397, “GSK137, a potent small-molecule BCL6 inhibitor with in vivo activity, suppresses antibody responses in mice” (The Journal of Biological Chemistry, 2021).
# Assays:
# [1] = molecular target: T1, human BCL6 BTB-POZ domain (BCL6 co-repressor peptide) (Homo sapiens, UniProt P41182, C67R/C84N/C8Q); assay: BCL6 TR-FRET assay, BCOR peptide displacement; format: binding; settings: read-out: pIC50 Human TR-FRET BCL6 co-repressor (converted)
# T1 construct: BCL6-Flag-6H-Avi (5-129) C8Q, C67R, C84N proteins; Flag (C); 6H (His6) (C); made in house; host or cells: E. coli
# Description: (§1) Human, mouse and rat BCL6-Flag-6H-Avi (5-129) C8Q, C67R, C84N proteins were expressed in E. coli according to standard procedures and purified on Ni-NTA, followed by ion exchange on a Source 30Q column and size exclusion on an Superdex 200 column in a buffer of 20 mM Tris, 250 mM NaCl, 5 mM DTT, 5% glycerol, pH 8.5. All protein purities were estimated to be >90% by SDS-PAGE and the expected masses were confirmed by MS analysis. For TR-FRET assay protein was enzymatically biotinylated by treatment of protein at 100 µM with a 2 fold molar excess of biotin in the presence of 2 mM ATP and 1 µM BirA enzyme in a buffer of 50 mM bicine pH 8.3, 10 mM MgCl2 at 30 °C for 1 hour, followed by extensivedialysis against 50 mM Tris-Cl pH 8.0, 100 mM NaCl, 1 mM DTT using a 3.5 kDa cut-off membrane. Biotinylation was confirmed by MS analysis and concentration was determined by Bradford assay, after which protein was stored in aliquots at -80 °C.
# (§2) Acceptor-labelled SMRT peptide H2N-[…](D2)-OH was dissolved in water by mass to give a 500 µM stock solution which was stored at -20 °C. Acceptor-labelled NCOR peptide H2N-[…](Alexa Fluor 647)-OH and acceptor-labelled BCOR peptide H2N-[…](Alexa Fluor 647)-OH were dissolved to a nominal concentration of 1 mM in DMSO, and stock solution concentration was determined by absorbance at 650 nm using an extinction coefficient of 270,000 M-1cm^-1. […]
# rat BCL6 and SMRT = molecular target: T2, rat BCL6 and SMRT (Rattus norvegicus, UniProt B2GUV8, C67R/C84N/C8Q); assay: BCL6 TR-FRET assay, rat BCL6 and SMRT; format: binding
# T2 construct: BCL6-Flag-6H-Avi (5-129) C8Q, C67R, C84N proteins; Flag (C); 6H (His6) (C); made in house; host or cells: E. coli
# Description: as §1, §2
# [2] = GSK in-house kinetic solubility assay (CAD); format: physicochemical; settings: kinetic from dmso stock, charged aerosol detector
# Permeability (Papp) = format: in vitro ADME; settings: not told
# [3] = Pharmacokinetics in blood during the immunization study; format: in vivo; settings: male, CD1, mouse, whole blood, po; for AUC: daily steady state, from simulated profiles; for Tmax: day 8; for Cmax: day 8, blood
# Description: (§3) Male CD1 mice (30–40 g, 8–9 weeks of age) were randomized into study treatment groups, housed individually and allowed to acclimatize under standard laboratory conditions for a minimum of 5 days prior to commencement of the study. Mice received food and water ad libitum. The experiment was performed in a certified dedicated in vivo experimental laboratory at the GlaxoSmithKline Medicines Research Centre, Stevenage, United Kingdom. The four treatment groups were (1) unimmunized and untreated (naive group) (n = 4); (2) intraperitoneal vehicle (n = 13), (3) GSK137 15 mg/kg (n = 14), and (4) GSK137 30 mg/kg (n = 14). Groups (2) to (4) were given intraperitoneal immunization with TNP–KLH (100 μg) on day 0, vehicle was 1% methylcellulose in water + 0.1% sodium lauryl sulphate, and compound or vehicle was given to groups (2) to (4) by oral gavage three times per day from day −1 to day +12. Blood samples were collected by tail vein for measurement of compound, IgM and IgG levels on days 0, 5, 8, and 12 ahead of immunization/first daily dose. On day 8, blood samples were also taken (n = 7) at 0.5, 1.5, 3, 5, or 7 h after first daily dose. On day 12, spleens were collected, weighed, and placed into Dulbecco's modified Eagle's medium on wet ice for analysis by flow cytometry.
# Mouse blood/water (50/50) samples were analyzed for GSK137 using an analytical method based on protein precipitation, followed by HPLC/MS–MS analysis. The lower limit of quantification for GSK137 was 1.2 ng/ml with a higher limit of quantification of 3000 ng/ml. A two-compartment PK model was used to describe the measured composite mean steady-state oral concentration–time profiles. A three times per day dose simulation was performed using the two-compartment PK model parameters generated to simulate the repeat dose concentration–time profile. All modelings were conducted in Phoenix64 (WinNonLin) version 8.1 (Pharsight).
# [4] = Tolerability in the immunization model (body weight, signs of toxicity, cytokines); format: in vivo, mouse
# Description: as §3
# To determine cytokine and chemokine levels plasma samples were analysed by electrochemiluminescence assay using a custom mouse multiplex kit (K15355K-4, Meso Scale Diagnostics (MSD), Rockville, MD, USA) to measure IFNγ, IL-6, IL-10, TNF, MCP-1, KC, IL-12, IL1b, IL-13 and IL17a according to the manufacturer’s protocol. Plates were read using an MSD Sector Imager 6000 and analysed with Discovery workbench software v4.0.11, cytokine data were back-fitted to the MSD standard curve.
smiles,measurement,setting,value
"Cc1ncccc1[C@H]1C[C@@H](c2cccc3nc(N)ccc23)Nc2c(F)cnn21 [GSK137, 5-((5S,7R)-3-Fluoro-7-(2-methylpyridin-3-yl)-4,5,6,7-tetrahydropyrazolo[1,5-a]pyrimidin-5-yl)quinolin-2-amine]",IC50,[1],0.0251 µM
same,pIC50 Rat TR-FRET SMRT,rat BCL6 and SMRT,7.6
same,solubility,[2],128 µg/mL
same,Papp,Permeability (Papp),8.6 ×10⁻⁶ cm/s
same,AUC,[3]; 15 mg/kg orally TID,3400 ng·h/mL
same,Tmax,[3]; 15 mg/kg orally TID,30 min
same,Cmax,[3]; 15 mg/kg orally TID,471 ± 226 ng/mL
same,AUC,[3]; 30 mg/kg orally TID,6810 ng·h/mL
same,Tmax,[3]; 30 mg/kg orally TID,30 min
same,Cmax,[3]; 30 mg/kg orally TID,1340 ± 141 ng/mL
same,mouse weights vs vehicle group,"[4]; 15 and 30 mg/kg orally TID, over the experiment",did not vary significantly
same,overt signs of toxicity,[4]; at the doses used (15 and 30 mg/kg),no overt signs of toxicity
same,levels of a panel of cytokines vs vehicle,"[4]; mouse, in vivo","either undetectable or, if detectable, did not differ significantly"
